Measurements taken from patent US6737383B1, “Herbicidal oxadiazolidines” (priority 1999, dated 2004).

Legend:
[1] = test system: common pursiane; experiment: Test D common purslane; type: in vivo, Portulaca oleracea; conditions: Postemergence, 0 to 100 scale
[2] = test system: common ragweed; experiment: Test D common ragweed; type: in vivo, Ambrosia elatior; conditions: Postemergence, 0 to 100 scale
[3] = test system: common groundsel; experiment: Test D common groundsel; type: in vivo, Senecio vulgaris; conditions: Postemergence, 0 to 100 scale
[4] = test system: dallisgrass; experiment: Test D dallisgrass; type: in vivo, Paspalum dilatatum; conditions: Postemergence, 0 to 100 scale
[5] = test system: goosegrass; experiment: Test D goosegrass; type: in vivo, Eleusine indica; conditions: Postemergence, 0 to 100 scale
[6] = test system: guineagrass; experiment: Test D guineagrass; type: in vivo, Panicum maximum; conditions: Postemergence, 0 to 100 scale
[7] = test system: itchgrass; experiment: Test D itchgrass; type: in vivo, Rottboellia exaltata; conditions: Postemergence, 0 to 100 scale
[8] = test system: sandbur; experiment: Test D sandbur; type: in vivo, Cenchrus echinatus; conditions: Postemergence, 0 to 100 scale
[9] = test system: Green foxtail; experiment: Test D green foxtail; type: in vivo; conditions: Postemergence, 0 to 100 scale, 0 no injury, 100 complete control
[10] = test system: Green foxtail; experiment: Test D green foxtail; type: in vivo; conditions: Postemergence, 0 to 100 scale, 0 no injury, 100 complete control; remark: listed apart in the source
[11] = Rate 16 g/ha, 0 no injury, 100 complete control
[12] = Rate 32 g/ha, 0 no injury, 100 complete control
[13] = Rate 64 g/ha, 0 no injury, 100 complete control
[14] = Rate 125 g/ha, 0 no injury, 100 complete control

With `CC(C)N(C(=O)n1oc(=O)n(C2CC2)c1=O)c1ccc(Cl)cc1` [Compound 241] the “Plant response rating, C. purslane” value [1, 11] was 0, the “Plant response rating, C. purslane” value [1, 12] was 0 and the “Plant response rating, C. purslane” value [1, 13] was 0. The “Plant response rating, C. purslane” value [1, 14] was 0, the “Plant response rating, C. purslane” value ([1]; Rate 250 g/ha) was 0 and the “Plant response rating, C. ragweed” value [2, 11] was 0. The “Plant response rating, C. ragweed” value [2, 12] was 0, the “Plant response rating, C. ragweed” value [2, 13] was 20 and the “Plant response rating, C. ragweed” value [2, 14] was 100. For the same molecule, the “Plant response rating, C. ragweed” value ([2]; Rate 250 g/ha) was 100, the “Plant response rating, Com. groundsel” value [3, 12] was 0 and the “Plant response rating, Com. groundsel” value [3, 13] was 0. The “Plant response rating, Com. groundsel” value [3, 14] was 100, the “Plant response rating, Com. groundsel” value ([3]; Rate 250 g/ha) was 100 and the “Plant response rating, Dallisgrass” value [4, 11] was 0. For the same molecule, the “Plant response rating, Dallisgrass” value [4, 12] was 40, the “Plant response rating, Dallisgrass” value [4, 13] was 50 and the “Plant response rating, Dallisgrass” value [4, 14] was 90. For the same molecule, the “Plant response rating, Dallisgrass” value ([4]; Rate 250 g/ha) was 100, the “Plant response rating, Goosegrass” value [5, 11] was 0 and the “Plant response rating, Goosegrass” value [5, 12] was 100. For the same molecule, the “Plant response rating, Goosegrass” value [5, 13] was 100, the “Plant response rating, Goosegrass” value [5, 14] was 100 and the “Plant response rating, Goosegrass” value ([5]; Rate 250 g/ha) was 100. For the same molecule, the “Plant response rating, Guineagrass” value [6, 11] was 0, the “Plant response rating, Guineagrass” value [6, 12] was 0 and the “Guineagrass plant response rating” value [6, 13] was 100. For the same molecule, the “Plant response rating, Guineagrass” value [6, 13] was 80, the “Plant response rating, Guineagrass” value [6, 14] was 100 and the “Plant response rating, Guineagrass” value ([6]; Rate 250 g/ha) was 100. For the same molecule, the “Plant response rating, Itchgrass” value [7, 11] was 0, the “Plant response rating, Itchgrass” value [7, 12] was 0 and the “Plant response rating, Itchgrass” value [7, 13] was 0. For the same molecule, the “Plant response rating, Itchgrass” value [7, 14] was 100, the “Plant response rating, Itchgrass” value ([7]; Rate 250 g/ha) was 100 and the “Plant response rating, Sandbur” value [8, 11] was 0. For the same molecule, the “Plant response rating, Sandbur” value [8, 12] was 40, the “Sandbur plant response rating” value [8, 13] was 20 and the “Sandbur plant response rating” value [8, 14] was 100. For the same molecule, the “Plant response rating, Sandbur” value ([8]; Rate 250 g/ha) was 90, the “Plant response rating, Green foxtail” value ([9]; Rate 16 g/ha) was 0 and the “Plant response rating, Green foxtail” value ([9]; Rate 32 g/ha) was 10. For the same molecule, the “Green foxtail plant response rating” value ([10]; Rate 64 g/ha) was 10 and the “Green foxtail plant response rating” value ([10]; Rate 125 g/ha) was 100.

With `CC(C)N(C(=O)n1oc(=O)n(C2CCC2)c1=O)c1ccccc1` [Compound 348] the “Plant response rating, C. purslane” value [1, 11] was 0, the “Plant response rating, C. purslane” value [1, 12] was 0 and the “Plant response rating, C. purslane” value [1, 13] was 0. For the same molecule, the “Plant response rating, C. purslane” value [1, 14] was 0, the “Plant response rating, C. purslane” value ([1]; Rate 250 g/ha) was 0 and the “Plant response rating, C. ragweed” value [2, 11] was 0. For the same molecule, the “Plant response rating, C. ragweed” value [2, 12] was 0, the “Plant response rating, C. ragweed” value [2, 13] was 0 and the “Plant response rating, C. ragweed” value [2, 14] was 0. The “Plant response rating, C. ragweed” value ([2]; Rate 250 g/ha) was 20, the “Plant response rating, Com. groundsel” value [3, 11] was 30 and the “Plant response rating, Com. groundsel” value [3, 13] was 50. For the same molecule, the “Plant response rating, Com. groundsel” value [3, 14] was 100, the “Plant response rating, Com. groundsel” value ([3]; Rate 250 g/ha) was 100 and the “Plant response rating, Dallisgrass” value [4, 11] was 0. For the same molecule, the “Plant response rating, Dallisgrass” value [4, 12] was 50, the “Plant response rating, Dallisgrass” value [4, 13] was 90 and the “Plant response rating, Dallisgrass” value [4, 14] was 100. The “Plant response rating, Dallisgrass” value ([4]; Rate 250 g/ha) was 100, the “Plant response rating, Goosegrass” value [5, 11] was 50 and the “Plant response rating, Goosegrass” value [5, 12] was 90. The “Plant response rating, Goosegrass” value [5, 13] was 100, the “Plant response rating, Goosegrass” value [5, 14] was 100 and the “Plant response rating, Goosegrass” value ([5]; Rate 250 g/ha) was 100. The “Plant response rating, Guineagrass” value [6, 11] was 0, the “Plant response rating, Guineagrass” value [6, 12] was 0 and the “Plant response rating, Guineagrass” value [6, 13] was 0. For the same molecule, the “Plant response rating, Guineagrass” value [6, 14] was 100, the “Plant response rating, Guineagrass” value ([6]; Rate 250 g/ha) was 80 and the “Plant response rating, Itchgrass” value [7, 11] was 0. The “Plant response rating, Itchgrass” value [7, 12] was 0, the “Plant response rating, Itchgrass” value [7, 13] was 0 and the “Plant response rating, Itchgrass” value [7, 14] was 0. For the same molecule, the “Plant response rating, Itchgrass” value ([7]; Rate 250 g/ha) was 100, the “Plant response rating, Sandbur” value [8, 11] was 0 and the “Plant response rating, Sandbur” value [8, 12] was 0. For the same molecule, the “Sandbur plant response rating” value [8, 13] was 20, the “Sandbur plant response rating” value [8, 14] was 60 and the “Plant response rating, Sandbur” value ([8]; Rate 250 g/ha) was 100. The “Plant response rating, Green foxtail” value ([9]; Rate 16 g/ha) was 0, the “Plant response rating, Green foxtail” value ([9]; Rate 32 g/ha) was 20 and the “Green foxtail plant response rating” value ([10]; Rate 64 g/ha) was 100. For the same molecule, the “Green foxtail plant response rating” value ([10]; Rate 125 g/ha) was 100.

For `CC(C)N(C(=O)n1oc(=O)n(C2CCC2)c1=O)c1ccc(Cl)cc1` [Compound 349], the “Plant response rating, C. purslane” value [1, 11] was 0, the “Plant response rating, C. purslane” value [1, 12] was 0 and the “Plant response rating, C. purslane” value [1, 13] was 0. For the same molecule, the “Plant response rating, C. purslane” value [1, 14] was 0, the “Plant response rating, C. purslane” value ([1]; Rate 250 g/ha) was 0 and the “Plant response rating, C. ragweed” value [2, 11] was 0. The “Plant response rating, C. ragweed” value [2, 12] was 0, the “Plant response rating, C. ragweed” value [2, 13] was 0 and the “Plant response rating, C. ragweed” value [2, 14] was 0. The “Plant response rating, C. ragweed” value ([2]; Rate 250 g/ha) was 20, the “Plant response rating, Com. groundsel” value [3, 14] was 20 and the “Plant response rating, Com. groundsel” value ([3]; Rate 250 g/ha) was 50. The “Plant response rating, Dallisgrass” value [4, 11] was 0, the “Plant response rating, Dallisgrass” value [4, 12] was 0 and the “Plant response rating, Dallisgrass” value [4, 13] was 0. The “Plant response rating, Dallisgrass” value [4, 14] was 60, the “Plant response rating, Dallisgrass” value ([4]; Rate 250 g/ha) was 90 and the “Plant response rating, Goosegrass” value [5, 11] was 0. For the same molecule, the “Plant response rating, Goosegrass” value [5, 12] was 20, the “Plant response rating, Goosegrass” value [5, 13] was 100 and the “Plant response rating, Goosegrass” value [5, 14] was 100. The “Plant response rating, Goosegrass” value ([5]; Rate 250 g/ha) was 90, the “Plant response rating, Guineagrass” value [6, 11] was 0 and the “Plant response rating, Guineagrass” value [6, 12] was 0. For the same molecule, the “Guineagrass plant response rating” value [6, 13] was 0, the “Plant response rating, Guineagrass” value [6, 13] was 20 and the “Plant response rating, Guineagrass” value [6, 14] was 0. The “Plant response rating, Guineagrass” value ([6]; Rate 250 g/ha) was 40, the “Plant response rating, Itchgrass” value [7, 11] was 0 and the “Plant response rating, Itchgrass” value [7, 12] was 0. For the same molecule, the “Plant response rating, Itchgrass” value [7, 13] was 0, the “Plant response rating, Itchgrass” value [7, 14] was 0 and the “Plant response rating, Itchgrass” value ([7]; Rate 250 g/ha) was 0. The “Plant response rating, Sandbur” value [8, 11] was 0, the “Plant response rating, Sandbur” value [8, 12] was 0 and the “Sandbur plant response rating” value [8, 13] was 0. For the same molecule, the “Sandbur plant response rating” value [8, 14] was 20, the “Plant response rating, Sandbur” value ([8]; Rate 250 g/ha) was 80 and the “Plant response rating, Green foxtail” value ([9]; Rate 16 g/ha) was 0. The “Plant response rating, Green foxtail” value ([9]; Rate 32 g/ha) was 0, the “Green foxtail plant response rating” value ([10]; Rate 64 g/ha) was 10 and the “Green foxtail plant response rating” value ([10]; Rate 125 g/ha) was 80.
